Measurements taken from US6664271B1, “Immunopotentiator agents” (Eli Lilly and Company, priority 1999, dated 2003).
Marks after values point to notes of the source that are not given here.

What was measured:
mononuclear leukocytes [1] = assay: mammalian T-lymphocyte blastogenesis assay, bovine (Example 75); type: cell-based
Description: (§1) The compound prepared in Example 30, namely (S)-ethyl 1-(2-thiopheneacetyl)-3-peridinecarboxylate, was further evaluated for in vitro T-lymphocyte blastogenic activity from mammalian species other than avian.
(§2) The mammalian blastogenesis assays were conducted with the same protocol as the vian assays with the following exceptions:
(§3) 1. Only mononuclear leukocytes are used for the mammalian assay. The cells are obtained from whole blood by differential centrifugation using Histopague 1.077 (Sigma Chemical Company, St. Louis, Mo).
(§4) 2. 0.5% Fetal Bovine Serum (FBS) [GIBCOBRL, Grand Island N.Y.] is added to RPMI 1640 medium. Exception: Non-human primate plasma is used instead of FBS at 5 ml/liter to RPMI 1640 medium.
(§5) 3. 5×10^5 cells/well were used with the mammalian assays.

mononuclear leukocytes [2] = assay: mammalian T-lymphocyte blastogenesis assay, non-human primate (Example 75); type: cell-based
Description: as §1, §2, §3, §4, §5

mononuclear leukocytes [3] = assay: mammalian T-lymphocyte blastogenesis assay, porcine (Example 75); type: cell-based
Description: as §1, §2, §3, §4, §5

E. coli 19B = assay: bacterial clearance of E. coli from peripheral blood of neonatal chicks (Example 77); type: in vivo, chick; settings: single subcutaneous injection of 25 μg, E. coli challenge, blood 14-18 hours post-challenge
Description: The compounds of Example 15 ((S)-ethyl 1-benzoyl-3-piperidinecarboxylate), Example 29 (1-benzoyl-3-butyrylpiperidine), Example 30 ((S)-ethyl 1-(2-thiopheneacetyl)-3-piperidinecarboxylate) and Example 68 ((S)-ethyl 1-benzyl-3-piperidinecarboxylate 1-methiodide), respectively, were tested to determine whether a single subcutaneous injection enhanced the bacterial clearance of E. coli from the peripheral blood of neonatal chicks. Bacterial clearance is a measurement of cell-mediated immunity, specifically, phagocyte function, in animals. An approved Animal Care and Use Committee protocol governed the activity in this experiment.
1 ml syringes with 21 g 1″ needles (Becton Dickinson and Company Franklin Lakes, N.J. 07417-1884); 1 ml syringe with 25 g ⅝″ needles (Becton Dickinson and Company Franklin Lakes, N.J. 07417-1884); EMB agar plates (Difco Laboratories, Becton Dickinson Microbiology Systems, Sparks, Md. 21152); Culture tubes (14 ml polystyrene round bottom, Becton Dickinson Labware, Franklin Lakes, N.J. 07417-1886); Dulbecco's Phosphate Buffered Saline w/o Mg^++ or Ca^++ (Gibco BRL, Life Technologies Rockville, Md. 20850). Peterson x Hubbard male chicks (day of hatch from a commercial hatchery) were utilized
160 chicks were divided into 6 groups: Group 1=Controls (acetate-buffered saline vehicle); Group 2=Compound of Example 15 ((S)-ethyl 1-benzoyl-3-piperidinecarboxylate); Group 3=Compound of Example 29 (1-benzoyl-3-butyrylpiperidine); Group 4=Compound of Example 30 ((S)-ethyl 1-(2-thiopheneacetyl)-3-piperidinecarboxylate); Group 5=Compound of Example 68 ((S)-ethyl 1-benzyl-3-piperidinecarboxylate 1-methiodide); and Group 6=environmental controls. Groups 1-5 contained 3 replicates of 10 chicks each and Group 6 contained 1 replicate of 10 chicks.
Day −2 Upon arrival, day of hatch chicks were randomized (10/group), and placed in a Petersime heated brooder battery unit (Petersime Incubator Company, Gettysburg, Ohio 45328). […] All chicks were given ad libitum access to a commercially available starter feed and water.
Day 0 11:00 AM. Five to ten colonies of E. coli 19B were selected from a fresh overnight blood agar plate (TSA II with 5% sheep blood, Becton Dickinson Microbiology Systems Cockeysville, Md. 21030) and placed into 100 ml Brain Heart Infusion broth (Difco Laboratories, Becton Dickinson Microbiology Systems Sparks, Md. 21152) in a flask. […]
Day 5 EMB plates were removed from the incubator and bacterial colonies were counted and recorded to calculate CFU/ml/chick.
Data was transformed to logio values, and analysis of variance was used to determine significant differences between the treatment groups and controls. Data was expressed as the percentage of enhancedbacterial clearance compared to E. coli-challenged controls. […]

## CCOC(=O)[C@H]1CCCN(C(=O)Cc2cccs2)C1 [Example 30, (S)-Ethyl 1-(2-Thiopheneacetyl)-3-piperidinecarboxylate]
Mononuclear leukocytes [1]
  MSC: 10 μg μg/ml
  MTC: 1 mg/mL
Mononuclear leukocytes [2]
  MSC: 10 μg μg/ml
  MTC: 1 mg/mL
Mononuclear leukocytes [3]
  MSC: 10 μg μg/ml
  MTC: 1 mg/mL
E. coli 19B
  % Enhanced Clearance Compared to Controls: 61* %
